According to patent US12319946B2, “Methods for producing modified bacteria for production of nitroaromatics” (priority 2018, dated 2025):
“Also recorded” adds a separate entry of the source.

How the values were obtained:
[1] = tested on: E. coli BL21 Gold cells expressing TB14, BsNOS and GDH; experiment: Whole-cell biotransformation (whole cell nitration system, Example 2/278); type: cell-based, Escherichia coli; settings: TB medium, analogue fed as substrate
Experimental: For analytical analysis, an HPLC column was kept at 40° C., water with 0.1% formic acid was used as solvent A and acetonitrile with 0.1% formic acid was used as solvent B. The column was eluted first with 1% solvent B for 1 min and then with a linear gradient of 1-20% solvent B in 8 min, followed by another linear gradient of 20-99% solvent B in 2 min. The column was further cleaned with 99% solvent B for 2 min and then re-equilibrated with 1% solvent B for 2 min. The flow rate was set as 1 ml/min, and the products were detected at […] with a PDA detector.
E. coli BL21 Gold cells containing pETDuet and pET28b derived plasmids were grown from glycerol stock overnight in 5 mL Luria broth with 0.1 mg/mL ampicillin and 0.05 mg/mL kanamycin (37° C., 250 rpm). The pre-culture was used to inoculate 100 mL of Terrific broth medium (0.1 mg/mL ampicillin and 0.05 mg/mL kanamycin) in a 500 mL flask; this culture was incubated at 37° C., 250 rpm to OD600=0.6-0.8. The cultures were cooled on water-ice mixture and induced with 0.5 mM IPTG, Expression was conducted at 18° C., 250 rpm, for 20 h. For the culture of E. coli BL21 Gold cells containing pACYCDuet and pET28b derived plasmids, 0.05 mg/mL chloramphenicol was used instead of 0.05 mg/mL kanamycin. The cultures were then harvested and resuspended to OD600=30 in test medium, Aliquots of the cell suspension were used in the whole cell transformation. To a test tube was added 5 mL cell suspension, 25 μL 100 mM L-Trp or L-Trp analogues, and 25 μL 100 mM L-Arg when necessary. The mixture was then incubated at different conditions. The reactions were quenched by adding equal volume of methanol and the resulting mixture was aliquoted and transferred to a microcentrifuge tube and centrifuged at 14,000 rpm for 10 minutes. The supernatant was transferred to an HPLC vial and analyzed by LC-MS.

[2] = tested on: E. coli BL21-GOLD (DE3) carrying Nitrotrp pathways (TB14, BsNOS, GDH); type: cell-based, Escherichia coli; settings: for nitration of fed analog by E. coli-II: 5 mM analog fed to fermentation medium of E. coli-II
TnaA = target: T1, TnaA (Escherichia coli, UniProt P0A853); experiment: TnaA assay (in vitro, recombinant tryptophanase); type: biochemical, E. coli; settings: 0.1 μM purified TnaA, 0.5 mM substrate, 37° C., 10 min
T1 construct: made in house; host or cells: E. coli BL21-GOLD (DE3)
T1 sequence (P0A853 whole entry): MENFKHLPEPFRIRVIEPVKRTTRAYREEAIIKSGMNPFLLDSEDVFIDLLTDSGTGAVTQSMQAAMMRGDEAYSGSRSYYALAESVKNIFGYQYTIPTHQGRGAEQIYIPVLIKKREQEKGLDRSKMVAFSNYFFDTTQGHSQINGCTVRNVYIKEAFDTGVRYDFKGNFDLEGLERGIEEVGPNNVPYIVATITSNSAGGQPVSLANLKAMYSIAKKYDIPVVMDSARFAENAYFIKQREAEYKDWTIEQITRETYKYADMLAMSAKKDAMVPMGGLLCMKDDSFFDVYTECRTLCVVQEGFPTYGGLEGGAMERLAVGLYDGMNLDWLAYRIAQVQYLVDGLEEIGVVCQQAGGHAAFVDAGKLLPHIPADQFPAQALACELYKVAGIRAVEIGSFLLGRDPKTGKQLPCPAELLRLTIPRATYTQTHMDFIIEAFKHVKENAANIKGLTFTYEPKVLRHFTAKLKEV
Experimental: The reactions contained 0.1 μM purified TnaA and 0.5 mM substrate and incubated at 37° C. for 10 min. No 4-nitro indole was produced in the enzyme reaction.
PCR amplicons were analyzed by agarose gel and extracted with GeneJET Gel Extraction Kit (Thermo). Purified PCR products and pET28b were digested with corresponding restriction enzymes, purified and then ligated to create expression constructs. Insert in the construct was sequenced to exclude potential errors introduced during PCR amplification and gene manipulation. Recombinant TnaA was prepared in E. coli BL21-GOLD (DE3). The enzyme assay (0.1 mL) contained 100 mM potassium phosphate buffer (pH 8.3), 0.2 mM pyridoxal 5-phosphate and 0.1 μM purified tnaA. The reaction mixtures were pre-warmed at 37° C. for 5 minutes, and initiated by adding 0.5 mM 1-Trp or Nitrotrp as substrate. After 10 minutes, the reactions were quenched by mixing well with 0.2 mL of methanol. After centrifugation at 14,000 rpm for 30 minutes, the supernatant was subject to HPLC analysis. All experiments were independently repeated at least twice.

Structure (SMILES) | nitration of tryptophan analogue by whole cell nitration system [1] | nitration of fed analog by E. coli-II [2] | conversion rates in whole cell-based nitration [1] | conversion/decomposition by recombinant TnaA (TnaA) | nitration activity of the strain toward substrate (rank) ([2]; 5 mM analog fed to E. coli-II)
N[C@@H](Cc1c[nH]c2cccc(F)c12)C(=O)O [Example 4-F-Trp, 4-F-Trp] | successfully nitrated | nitrated |  |  | 
Cc1cccc2[nH]cc(C[C@H](N)C(=O)O)c12 [Example 4-Me-Trp, 4-Me-Trp] | successfully nitrated | nitrated | highest conversion rates |  | 
N[C@@H](Cc1c[nH]c2cccc([N+](=O)[O-])c12)C(=O)O [Example 4-NO2-L-Trp, 4-NO2-L-Trp] |  |  |  | not able to decompose | 
N[C@@H](Cc1c[nH]c2ccc(F)cc12)C(=O)O [Example 5-F-Trp, 5-F-Trp] | successfully nitrated | nitrated | highest conversion rates |  | 
Cc1ccc2[nH]cc(C[C@H](N)C(=O)O)c2c1 [Example 5-Me-Trp, 5-Me-Trp] | successfully nitrated | nitrated | highest conversion rates |  | highest nitration activity
COc1ccc2[nH]cc(C[C@H](N)C(=O)O)c2c1 [Example 5-MeO-Trp, 5-MeO-Trp] | successfully nitrated | nitrated |  |  | 
N[C@@H](Cc1c[nH]c2cc(F)ccc12)C(=O)O [Example 6-F-Trp, 6-F-Trp] | successfully nitrated | nitrated |  |  | 
Cc1cccc2c(C[C@H](N)C(=O)O)c[nH]c12 [Example 7-Me-Trp, 7-Me-Trp] | successfully nitrated | nitrated |  |  | 
N[C@@H](Cc1c[nH]c2ccccc12)C(=O)O [L-Trp, L-tryptophan] |  |  |  | produced indole | 
N[C@@H](Cc1c[nH]c2cccc([N+](=O)[O-])c12)C(=O)O [Nitrotrp] |  |  |  | does not convert; also recorded: not observed | 
C[C@](N)(Cc1c[nH]c2ccccc12)C(=O)O [α-Me-Trp] | successfully nitrated | nitrated |  |  | 
